Source: ChEMBL document CHEMBL1201862, “PubChem BioAssay data set” (2004)
Values belong to the compound of their own block, whether it stands above or below them. The source made the active and inactive calls.

Legend:
[1] = target: T1, Neuropeptide Y receptor type 1 (Homo sapiens, UniProt P25929); experiment: Fluorescence-based counterscreen for agonists of NPY-Y2: cell-based high-throughput dose response assay for agonists of NPY-Y1.; type: functional
T1 sequence (P25929 whole entry): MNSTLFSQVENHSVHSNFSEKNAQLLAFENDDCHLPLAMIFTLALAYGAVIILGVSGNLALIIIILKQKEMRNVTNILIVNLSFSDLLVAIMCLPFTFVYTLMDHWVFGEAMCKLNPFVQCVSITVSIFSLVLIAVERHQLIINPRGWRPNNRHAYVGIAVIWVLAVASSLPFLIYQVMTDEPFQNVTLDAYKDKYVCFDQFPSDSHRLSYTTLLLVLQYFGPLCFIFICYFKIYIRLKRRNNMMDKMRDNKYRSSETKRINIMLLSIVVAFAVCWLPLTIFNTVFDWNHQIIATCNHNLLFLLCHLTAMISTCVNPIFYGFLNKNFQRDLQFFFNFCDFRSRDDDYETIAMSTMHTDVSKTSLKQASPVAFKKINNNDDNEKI

[2] = system: HEK293; experiment: Fluorescence-based counterscreen for potentiators or agonists of NPY-Y2: cell-based high-throughput dose response assay to identify inhibitors of cyclic nucleotide gated ion channel (CNGC) activity. In this assay, the parental HEK293 cell line transfected with a cyclic-nucleotide gated ion channel (CNGC)-based cAMP sensor is used to measure inhibition of isoproterenol-induced CNGC activity by test compound.; type: functional; details: Homo sapiens;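 note: stimulus is 1 µM isoproterenol at EC100 plus PDE inhibitor Ro 20-1724 at 25 µM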
[3] = target: T2, Neuropeptide Y receptor type 2 (Homo sapiens, UniProt P49146); experiment: Fluorescence-based cell-based high-throughput dose response assay for agonists of NPY-Y2. [Related pubchem assays: 1703 (Screening assay (CNGC inhibitors).), 1359 (Screening assay (NPY-Y2 potentiators or agonists).), 1304 (Screening assay (NPY-Y1 potentiators or agonists).), 1710 (Screening assay (NPY-Y2 agonists).), 1791 (Summary AID.)]; type: functional
T2 sequence (P49146 whole entry): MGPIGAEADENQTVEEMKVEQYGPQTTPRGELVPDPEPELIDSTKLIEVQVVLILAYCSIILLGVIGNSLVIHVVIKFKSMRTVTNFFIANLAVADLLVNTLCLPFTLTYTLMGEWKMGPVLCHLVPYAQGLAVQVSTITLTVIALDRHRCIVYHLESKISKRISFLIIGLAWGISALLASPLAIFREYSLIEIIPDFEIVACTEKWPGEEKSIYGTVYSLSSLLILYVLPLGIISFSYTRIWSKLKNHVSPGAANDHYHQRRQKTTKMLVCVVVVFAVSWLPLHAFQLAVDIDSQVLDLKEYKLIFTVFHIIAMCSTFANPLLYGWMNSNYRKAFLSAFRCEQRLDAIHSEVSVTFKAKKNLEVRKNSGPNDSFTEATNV

[4] = target: DNA dC->dU-editing enzyme APOBEC-3G (Homo sapiens, UniProt Q9HC16); type: functional;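 note: Dose-response counterscreen measuring inhibition of APOBEC3G DNA deaminase activity, run while confirming APOBEC3A inhibitors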
DNA dC->dU-editing enzyme APOBEC-3G, sequence (Q9HC16 whole entry): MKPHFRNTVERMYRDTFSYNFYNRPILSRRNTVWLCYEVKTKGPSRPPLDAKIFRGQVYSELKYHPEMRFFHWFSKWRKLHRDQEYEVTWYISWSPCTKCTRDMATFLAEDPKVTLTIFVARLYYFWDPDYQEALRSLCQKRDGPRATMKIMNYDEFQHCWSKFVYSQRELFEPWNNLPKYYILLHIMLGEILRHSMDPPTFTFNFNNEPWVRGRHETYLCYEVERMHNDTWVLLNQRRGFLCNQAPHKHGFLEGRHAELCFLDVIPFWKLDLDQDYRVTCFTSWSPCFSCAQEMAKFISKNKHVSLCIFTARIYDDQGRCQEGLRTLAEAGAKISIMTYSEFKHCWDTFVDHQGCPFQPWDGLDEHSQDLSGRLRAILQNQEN

[5] = target: DNA dC->dU-editing enzyme APOBEC-3A (Homo sapiens, UniProt P31941); experiment: Dose Response confirmation of small molecule APOBEC3A DNA Deaminase Inhibitors via a fluorescence-based single-stranded DNA deaminase assay. [Related pubchem assays (depositor defined):AID493011, AID493024]; type: functional
DNA dC->dU-editing enzyme APOBEC-3A, sequence (P31941 whole entry): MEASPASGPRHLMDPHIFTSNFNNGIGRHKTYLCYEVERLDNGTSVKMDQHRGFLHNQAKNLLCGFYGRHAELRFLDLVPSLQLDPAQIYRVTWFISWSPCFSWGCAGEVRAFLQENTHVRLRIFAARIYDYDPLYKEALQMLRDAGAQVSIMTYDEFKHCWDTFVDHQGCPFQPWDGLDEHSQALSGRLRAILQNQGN

[6] = target: T3, Aspartyl aminopeptidase (Plasmodium falciparum 3D7, UniProt Q8I2J3); experiment: Counterscreen for inhibitors of M1 and M17 aminopeptidases: QFRET-based biochemical high throughput dose response assay for inhibitors of the Plasmodium falciparum M18 Aspartyl Aminopeptidase (PFM18AAP). [Related PubChem assays: 1619 (Screening assay (M17LAP inhibitors).), 1445 (Screening assay (M1AAP inhibitors).)]
T3 sequence (Q8I2J3 whole entry): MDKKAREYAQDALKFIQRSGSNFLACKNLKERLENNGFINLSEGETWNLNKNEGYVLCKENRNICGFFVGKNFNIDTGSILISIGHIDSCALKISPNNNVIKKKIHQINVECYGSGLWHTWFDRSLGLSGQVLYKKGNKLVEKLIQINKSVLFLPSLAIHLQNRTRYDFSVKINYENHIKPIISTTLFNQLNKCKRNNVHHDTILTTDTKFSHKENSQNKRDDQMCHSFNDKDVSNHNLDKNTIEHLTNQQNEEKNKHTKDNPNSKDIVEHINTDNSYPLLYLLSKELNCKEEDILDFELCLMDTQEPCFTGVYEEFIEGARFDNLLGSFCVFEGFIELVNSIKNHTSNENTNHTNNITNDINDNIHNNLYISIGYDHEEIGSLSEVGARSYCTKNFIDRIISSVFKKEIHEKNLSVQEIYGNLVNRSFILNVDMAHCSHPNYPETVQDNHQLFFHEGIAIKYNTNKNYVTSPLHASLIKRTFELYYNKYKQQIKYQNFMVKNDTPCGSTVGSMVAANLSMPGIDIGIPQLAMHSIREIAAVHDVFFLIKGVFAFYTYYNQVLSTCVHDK

[7] = target: T4, Leucine aminopeptidase (Plasmodium falciparum 3D7, UniProt Q8IL11); experiment: P. falciparum M17LAP inhibitors, primary screen, biochemical, fluorogenic H-Leu-NHMec substrate, 1536-well (AID 1619); type: functional
T4 sequence (Q8IL11 whole entry): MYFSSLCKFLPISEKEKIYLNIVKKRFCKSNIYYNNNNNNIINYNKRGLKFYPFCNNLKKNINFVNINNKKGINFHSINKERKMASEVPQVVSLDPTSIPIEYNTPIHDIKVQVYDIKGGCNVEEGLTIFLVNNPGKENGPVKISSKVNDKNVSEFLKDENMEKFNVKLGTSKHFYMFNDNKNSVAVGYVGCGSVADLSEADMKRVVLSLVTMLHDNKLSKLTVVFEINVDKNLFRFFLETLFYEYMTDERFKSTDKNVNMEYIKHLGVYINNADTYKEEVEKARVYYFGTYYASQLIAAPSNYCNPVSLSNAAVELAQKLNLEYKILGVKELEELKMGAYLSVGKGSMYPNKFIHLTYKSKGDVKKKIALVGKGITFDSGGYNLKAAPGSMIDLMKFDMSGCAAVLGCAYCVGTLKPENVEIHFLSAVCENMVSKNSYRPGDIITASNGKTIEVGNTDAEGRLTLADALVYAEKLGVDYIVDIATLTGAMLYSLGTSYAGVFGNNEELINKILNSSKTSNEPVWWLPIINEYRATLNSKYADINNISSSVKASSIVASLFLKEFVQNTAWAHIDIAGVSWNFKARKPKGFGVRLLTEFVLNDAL

[8] = target: Procathepsin L (Homo sapiens, UniProt P07711); experiment: cathepsin L inhibitors, dose response, counter-screen for M1/M17 aminopeptidase inhibitor project, biochemical, QFRET, 1536-well (AID 2214)
Procathepsin L, sequence (P07711 whole entry): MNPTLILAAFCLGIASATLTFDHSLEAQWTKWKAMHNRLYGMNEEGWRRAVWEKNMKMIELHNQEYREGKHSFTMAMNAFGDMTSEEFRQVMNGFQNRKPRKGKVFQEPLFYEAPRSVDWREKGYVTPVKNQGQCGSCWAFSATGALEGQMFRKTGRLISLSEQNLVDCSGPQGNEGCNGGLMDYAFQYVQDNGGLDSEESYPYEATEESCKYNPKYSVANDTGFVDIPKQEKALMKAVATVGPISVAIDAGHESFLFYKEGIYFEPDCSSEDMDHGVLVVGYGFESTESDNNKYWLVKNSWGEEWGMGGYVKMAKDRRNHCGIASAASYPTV

[9] = target: CAAX prenyl protease 2 (Saccharomyces cerevisiae S288c, UniProt Q03530); type: biochemical
CAAX prenyl protease 2, sequence (Q03530 whole entry): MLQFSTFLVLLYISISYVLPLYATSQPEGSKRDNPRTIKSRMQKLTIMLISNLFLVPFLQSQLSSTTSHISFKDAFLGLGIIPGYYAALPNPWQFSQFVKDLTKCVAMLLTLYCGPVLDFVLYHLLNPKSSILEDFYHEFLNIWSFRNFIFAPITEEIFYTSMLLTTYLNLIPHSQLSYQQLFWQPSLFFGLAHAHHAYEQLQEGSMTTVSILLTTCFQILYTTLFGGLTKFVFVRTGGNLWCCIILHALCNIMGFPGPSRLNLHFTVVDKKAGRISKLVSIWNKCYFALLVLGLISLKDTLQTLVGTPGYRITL

[10] = cells
[11] = HEp-2 cell cytotoxicity, dose response, cytotoxicity control for RSV inhibitor project, HTS (AID 2410); type: functional; details: human respiratory syncytial virus
[12] = cytotoxicity in HPDE-C7 cells, cell-based, fluorescence, HTS (AID 430); type: functional; details: Homo sapiens
[13] = cytotoxicity in KRAS-transformed pancreatic duct cells, primary screen, cell-based, fluorescence, HTS (AID 431); type: functional; details: Homo sapiens;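 note: cell line used: HPDE-C7K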
[14] = target: T5, Bcl-2-related protein A1 (Mus musculus, UniProt Q07440); experiment: Bfl-1 inhibitors blocking BH3 peptide binding, confirmation, biochemical, TR-FRET, mouse Bfl-1 (AID 621);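 note: TR-FRET binding of GST-Bfl-1 to FITC-labelled Bid peptide via terbium antibody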
T5 sequence (Q07440 whole entry): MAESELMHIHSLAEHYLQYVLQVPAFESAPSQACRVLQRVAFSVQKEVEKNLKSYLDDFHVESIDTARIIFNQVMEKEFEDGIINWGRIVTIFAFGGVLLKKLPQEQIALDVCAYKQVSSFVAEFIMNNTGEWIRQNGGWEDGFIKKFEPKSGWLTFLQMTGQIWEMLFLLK

[15] = system: HeLa; experiment: HeLa cell cytotoxicity, dose response, cytotoxicity control for MITF activator project, CellTiter-Glo luminescence, cherry-pick samples (AID 540259); type: functional, cell-based; details: Homo sapiens
[16] = target: T5, Bcl-2-related protein A1; experiment: Bfl-1 binding inhibitors, SAR follow-up, biochemical, fluorescence polarization (AID 1070)

SMILES: CCc1cc[n+](/C(C([S-])=Nc2cccc(C)c2)=C(/O)c2ccc(C)c([N+](=O)[O-])c2)cc1
EC50 [1]: > 35.4 µM (not active)
EC50 [2]: > 35.4 µM (not active)
EC50 [3]: > 35.4 µM (not active)

SMILES: CCn1c(C)cc(/C=C2\NC(=O)N(CC(=O)Nc3ccc(F)cc3)C2=O)c1C
IC50 [4]: 2.2 µM (active)
IC50 [5]: 1.24 µM (active)

IC50 [6]: > 73.5 µM (not active)
IC50 [7]: 5.37 µM (active)
IC50 [8]: > 59.6 µM (not active)
SMILES: Cc1cccc(NC(=O)CSc2nc(O)c(C#N)c(-c3ccccc3)n2)c1C

AC50 [9]: 11.3 µM (active)
SMILES: COc1cc2ccccc2cc1C(=O)N(CCN(C)C)c1nc2ccc(C)cc2s1

SMILES: Cc1cc(Nc2ccccc2Cl)nc(-c2ccccc2O)n1
IC50 [10]: 34.7 µM (active)
CC50 [11]: 38.5 µM (active)

SMILES: CCc1c(C)nc(N)nc1OCC(F)(F)C(F)F
EC50 [12]: > 20 µM (not active)
EC50 [13]: > 20 µM (not active)

AC50 [9]: 5.28 µM (active)
SMILES: Nc1c(Cl)cc(C2=NCCn3nc4cc(C(F)(F)F)ccc4c32)cc1Cl

SMILES: c1ccc(-n2nnc(-c3cccnc3)n2)cc1
IC50 [14]: > 100 µM (not active)
AC50 [15]: 213 µM (active)
IC50 [16]: > 100 µM (not active)
